Tests used:
PDE10A = target: T1, PDE10A (Homo sapiens, UniProt Q9Y233); test: Inhibition of recombinant PDE10A (baculovirus/SF21 system), [3H]-cAMP SPA; format: biochemical; conditions: recombinant PDE10A1, cytosolic; 0.1 μM [3H]-cAMP, 37° C., 30 minutes; read-out: PDE10A IC50
T1 construct: made in house; host or cells: SF21 insect cells (baculovirus)

PDE2A = target: T2, PDE2A (Homo sapiens, UniProt O00408); test: Inhibition of recombinant PDE2A (expressed in baculovirus/SF21-cells), [3H]-cAMP SPA; format: biochemical
T2 construct: made in house; host or cells: SF21 insect cells (baculovirus)
T2 sequence (O00408 whole entry): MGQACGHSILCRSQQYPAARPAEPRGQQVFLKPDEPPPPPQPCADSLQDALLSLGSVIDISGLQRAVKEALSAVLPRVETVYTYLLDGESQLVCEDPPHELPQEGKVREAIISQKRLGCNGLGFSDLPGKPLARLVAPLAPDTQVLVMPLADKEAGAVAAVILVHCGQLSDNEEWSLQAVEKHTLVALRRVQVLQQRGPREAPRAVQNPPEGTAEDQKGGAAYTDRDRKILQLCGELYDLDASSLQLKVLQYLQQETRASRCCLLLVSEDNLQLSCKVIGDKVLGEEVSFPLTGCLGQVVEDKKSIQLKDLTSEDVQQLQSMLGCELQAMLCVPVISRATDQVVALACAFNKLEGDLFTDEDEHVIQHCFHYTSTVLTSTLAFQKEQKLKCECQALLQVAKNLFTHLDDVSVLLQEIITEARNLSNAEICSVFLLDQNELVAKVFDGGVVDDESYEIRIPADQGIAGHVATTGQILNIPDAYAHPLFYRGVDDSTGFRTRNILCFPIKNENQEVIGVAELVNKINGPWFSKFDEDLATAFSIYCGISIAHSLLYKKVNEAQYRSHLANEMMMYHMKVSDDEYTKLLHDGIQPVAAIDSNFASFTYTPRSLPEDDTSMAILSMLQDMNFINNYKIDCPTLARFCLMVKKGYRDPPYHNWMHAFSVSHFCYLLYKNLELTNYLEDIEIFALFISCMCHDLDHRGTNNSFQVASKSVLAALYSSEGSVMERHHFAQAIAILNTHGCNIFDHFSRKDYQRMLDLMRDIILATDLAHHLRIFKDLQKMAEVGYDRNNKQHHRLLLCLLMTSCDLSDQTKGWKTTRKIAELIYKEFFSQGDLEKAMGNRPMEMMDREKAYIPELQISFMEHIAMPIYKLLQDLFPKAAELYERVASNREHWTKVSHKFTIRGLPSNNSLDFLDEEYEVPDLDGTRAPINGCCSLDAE
In short: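 Membrane fraction of baculovirus/SF21-expressed PDE2A was incubated 30 min at 37° C in Tris-HCl/MgCl2 pH 7.4 with 0.5 μM [3H]-cAMP and 1000 nM cGMP as activator. Product was detected by SPA scintillation. IC50 used a Hill-plot 2-parameter model.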

T1 sequence (Q9Y233 1-779 isoform Q9Y233-1): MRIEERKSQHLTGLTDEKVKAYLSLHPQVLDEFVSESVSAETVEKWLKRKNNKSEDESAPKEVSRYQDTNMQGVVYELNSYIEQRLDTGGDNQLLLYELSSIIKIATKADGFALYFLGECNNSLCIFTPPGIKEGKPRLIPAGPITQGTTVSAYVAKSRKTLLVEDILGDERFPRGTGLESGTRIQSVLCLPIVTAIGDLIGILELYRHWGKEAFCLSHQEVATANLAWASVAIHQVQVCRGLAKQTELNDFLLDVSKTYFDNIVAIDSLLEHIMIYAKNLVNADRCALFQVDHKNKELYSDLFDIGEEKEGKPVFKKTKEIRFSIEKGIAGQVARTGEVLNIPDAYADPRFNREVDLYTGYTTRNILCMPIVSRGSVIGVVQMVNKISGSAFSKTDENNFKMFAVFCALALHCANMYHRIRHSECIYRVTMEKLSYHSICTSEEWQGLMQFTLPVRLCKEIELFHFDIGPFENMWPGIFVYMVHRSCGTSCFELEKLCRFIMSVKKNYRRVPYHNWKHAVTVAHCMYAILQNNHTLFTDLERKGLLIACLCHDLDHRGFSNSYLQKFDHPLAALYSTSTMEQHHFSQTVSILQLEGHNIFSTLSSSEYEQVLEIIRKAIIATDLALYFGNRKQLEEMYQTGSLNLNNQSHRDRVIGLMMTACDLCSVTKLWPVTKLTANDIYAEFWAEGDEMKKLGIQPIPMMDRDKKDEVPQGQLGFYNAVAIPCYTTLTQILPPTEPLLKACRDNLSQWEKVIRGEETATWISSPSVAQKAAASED

| SMILES | IC50 (PDE10A) | IC50 (PDE2A) | melting point |
| --- | --- | --- | --- |
| CCCCOc1ccc(F)c(-c2ccc3nnc4c(C)nc(-c5cc(OCCCC)ccc5F)n4c3c2)c1 [Example 175, 1,8-Bis-(5-butoxy-2-fluoro-phenyl)-3-methyl-imidazo[5,1-c][1,2,4]benzotriazine] | 21.6 nM | 0.77 nM | 94 to 95 °C |
| Cc1nc(-c2cc(C(F)(F)F)ccc2F)n2c1nnc1ccc(-c3cc(C(F)(F)F)ccc3F)cc12 [Example 176, 1,8-Bis-(2-fluoro-5-trifluoromethyl-phenyl)-3-methyl-imidazo[5,1-c][1,2,4]benzotriazine] | 117 nM | 137 nM | 155 to 158 °C |
| Cc1nc(-c2ccccc2Cl)n2c1nnc1ccc(N3CCOCC3)cc12 [Example 184, 1-(2-Chloro-phenyl)-3-methyl-8-morpholin-4-yl-imidazo[5,1-c][1,2,4]benzotriazine] | 9.77 nM | 6.39 nM | 242 to 245 °C |
| Cc1nc(-c2ccccc2Cl)n2c1nnc1ccc(OCc3ccc(F)cc3)cc12 [Example 187, 1-(2-Chloro-phenyl)-8-(4-fluoro-benzyloxy)-3-methyl-imidazo[5,1-c][1,2,4]benzotriazine] | 24.6 nM | 9.72 nM | 174 to 177 °C |

Compounds with a lower IC50 (PDE10A), results first:

| IC50 (PDE10A) | IC50 (PDE2A) | melting point | SMILES |
| --- | --- | --- | --- |
| 9.02 nM | 7.49 nM | 230 °C | Cc1nc(-c2ccccc2Cl)n2c1nnc1ccc(N3CCN(C)CC3)cc12 [Example 186, 1-(2-Chloro-phenyl)-3-methyl-8-(4-methyl-piperazin-1-yl)-imidazo[5,1-c][1,2,4]benzotriazine] |
| 8.97 nM | 7.14 nM | 95 to 98 °C | Cc1nc(-c2ccccc2Cl)n2c1nnc1ccc(-n3ccnc3)cc12 [Example 185, 1-(2-Chloro-phenyl)-8-imidazol-1-yl-3-methyl-imidazo[5,1-c][1,2,4]benzotriazine] |

— patent publication US20100120763A1, “IMIDAZO[5,1-C][1,2,4]BENZOTRIAZINE DERIVATIVES AS INHIBITORS OF PHOSPHODIESTERASES” (priority 2008, published 2010)
